Measured values as given in US12246009B2, “Compositions and methods for treating neurodegenerative, myodegenerative, and lysosomal storage disorders” (GEORGETOWN UNIVERSITY, priority 2018, dated 2025).
“Also recorded” adds a separate entry of the source.

Tested on: α-synuclein
Assay: α-synuclein ELISA in α-synuclein-transfected B35 cells
Format: cell-based, rat
Description: Rat neuroblastoma B35 cells were grown in Dulbecco's Modified Eagle's Medium (DMEM) with 10% Fetal Bovine Serum (FBS) and 1% penicillin/streptomycin and incubated at 37° C. with 5% CO2. For the experiments, cells were transferred to 12-well plates (Cat. #150628, ThermoFisher, Waltham, MA) and grown to at least 70% confluence. Transient transfection was performed with 3 μg P301 L tau (Cat. #30145, Addgene) cDNA or 3 μg human α-synuclein cDNA using Fugene HD transfection reagent (Cat. #E2311, Promega, Madison WI) for 24 hours. Cells were treated with 1 mM, 100 μM, 10 μM, 1 μM, 0.1 μM, 0.01 μM, and 0.001 μM dissolved in DMSO or an equivalent 5 ul of DMSO for 5 hours. Cell culture media was collected and cells were harvested using sodium-tris, EDTA, NP-40 (STEN) buffer and centrifuged at 10,000×g for 20 minutes at 4′C and supernatant was collected. Cell viability was determined via lactate dehydrogenase assay (Cat. #88954, Thermofisher) and MTT assay (Cat. #V13154, Thermofisher). Protein was extracted by removing culture medium and adding 0.2 ml 1× STEN buffer (50 mM. Tris (pH 7.6), 150 mM NaCl, 2 mM EDTA, 0.2% NP-40, 0.2% BSA, 20 mM. PMSF and protease cocktail inhibitor) to cell layer and incubated on ice for 10 minutes. The bottom of the well was scraped and allowed to incubate on ice for an additional 10 minutes. Cell lysates were collected, stored at −80° C., and used for additional analyses.
To perform transient transfection of α-synuclein into the rat neuroblastoma B35 cells FuGene® HD Transfection Reagent (Promega Corporation, Madison, WI) was used. Cells were grown in 12-well dishes. […]
Human α-synuclein and p-tau ELISA were performed using 50 μl (1 μg/4 μl) of cell lysates detected with 50 μl primary antibody (3 h) and 100 μl anti-rabbit secondary antibody (30 min) at RT. α-Synuclein levels were measured using human specific ELISA (Invitrogen Inc., Carlsbad, CA) according to manufacturer's protocols. Tau was measured using specific tau at serine 396 according to manufacturer's protocol. […]

SMILES	level of alpha-synuclein (transfected B35 cells, 1 mM and 100 uM)	α-synuclein level (α-synuclein-transfected B35 cells, 24 hour transfection)
Cc1cccc(-c2cc3nccc(Nc4cccc(O)c4)c3s2)c1 [BK40196]	significantly reduced	
Cc1cccc(-c2cc3nccc(N4CCOCC4)c3s2)c1 [BK40197, 4-(2-(m-Tolyl)thieno[3,2-b]pyridin-7-yl)morpholine]		does not reduce alpha-synuclein; also recorded: does not significantly reduce
